US20260001928A1 (CORTERIA PHARMACEUTICALS, priority 2022, published 2026)
*1 amine or outer side, *2 acyl side, *3 side chain or, on linkers, in order; H or OH if unused. Where a SMILES comes first, the peptide text is derived from it. Side-chain parts run from the residue outwards. [ ]: non-standard residue; d: D form. The star is where a group is joined. C20 diacid = O=C(O)CCCCCCCCCCCCCCCCCCC(=O)*; C18 diacid = O=C(O)CCCCCCCCCCCCCCCCC(=O)*; γGlu = O=C(O)[C@H](CCC(=O)[*:2])N[*:1]; C14 diacid = O=C(O)CCCCCCCCCCCCC(=O)*; Api = NC1(C(=O)O)CCNCC1; AEEA = NCCOCCOCC(=O)O; Aib = CC(C)(N)C(=O)O

How the values were obtained:
[1] = In vitro subcutaneous tissue supernatant (SCts) stability and metabolite identification, rat; format: in vitro ADME; set-up: remaining at 2 h: dose or concentration left out as unconfirmed; settings: male, Sprague Dawley; rat subcutaneous tissue supernatant (SCts), 37° C, 2 h
CFR1R receptor = target: T1, CFR1R receptor (Homo sapiens, UniProt P34998); experiment: Activity at anti-target CFR1R receptor, cAMP assay in CRF1R-overexpression CHO-K1 cells; format: cell-based; settings: 100% = Sauvagine at 100 nM; for EC50: cAMP
T1 construct: host or cells: CHO-K1 (clone 2)
T1 sequence (P34998 24-415): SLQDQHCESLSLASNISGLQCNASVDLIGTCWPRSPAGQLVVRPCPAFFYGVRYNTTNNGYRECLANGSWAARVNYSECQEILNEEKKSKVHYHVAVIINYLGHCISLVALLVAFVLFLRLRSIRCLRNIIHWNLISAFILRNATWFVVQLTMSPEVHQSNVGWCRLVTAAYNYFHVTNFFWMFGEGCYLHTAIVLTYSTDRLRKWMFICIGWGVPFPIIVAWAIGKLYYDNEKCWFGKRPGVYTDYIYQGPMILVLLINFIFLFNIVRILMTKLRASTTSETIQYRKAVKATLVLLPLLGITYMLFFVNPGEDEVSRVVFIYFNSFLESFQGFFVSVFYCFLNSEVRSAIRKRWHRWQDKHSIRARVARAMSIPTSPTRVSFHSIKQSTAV
Procedure, shortened: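 The method mirrors that used with TeloHAEC cells. Here, thawed clone 2 cells seeded at 4000 cells/well are tested, and 100 nM Sauvagine sets the top of the activation scale.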

human CRF2a receptor = target: T2, human CRF2a receptor (Homo sapiens, UniProt Q13324); experiment: Activity at human CRF2a receptor, cAMP functional assay in TeloHEAC cells; format: cell-based; settings: TeloHEAC cells stably expressing human CRF2a receptor, relative to urocortin 2 (100 nM = 100%)
T2 construct: expressed in transfected cells; host or cells: TeloHEAC cells
T2 sequence (Q13324 1-411): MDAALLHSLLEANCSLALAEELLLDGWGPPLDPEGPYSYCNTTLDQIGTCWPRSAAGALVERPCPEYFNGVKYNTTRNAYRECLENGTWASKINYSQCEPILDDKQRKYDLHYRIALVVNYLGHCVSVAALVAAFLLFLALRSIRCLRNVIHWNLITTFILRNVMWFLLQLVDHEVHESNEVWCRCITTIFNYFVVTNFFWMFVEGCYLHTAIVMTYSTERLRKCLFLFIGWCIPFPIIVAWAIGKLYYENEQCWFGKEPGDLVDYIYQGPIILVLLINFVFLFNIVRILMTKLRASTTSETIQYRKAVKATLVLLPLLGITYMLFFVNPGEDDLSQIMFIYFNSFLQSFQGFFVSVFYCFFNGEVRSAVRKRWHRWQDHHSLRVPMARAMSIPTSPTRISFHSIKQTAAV
Procedure, shortened: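 TeloHEAC cells stably expressing human CRF2a (10000 cells/well) were treated with 16-point 1:2 compound dilutions in HBSS/20 mM HEPES with IBMX for 30 min at 37° C. cAMP was read by HTRF (665/620 nm ratio). EC50 was the concentration giving 50% activation, with 100 nM urocortin 2 set as 100%.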

[2] = Pharmacokinetics in male Sprague Dawley rats after subcutaneous administration; format: in vivo; settings: plasma, rat, IV, 0.05 mg/kg
[3] = Chemical stability in buffer (pH 7.4 / pH 4.5), % purity loss; format: physicochemical; settings: 40° C. vs 5° C., 14 or 28 days; for Buffer stability pH 7.4 % purity loss: 100 mM phosphate buffer pH 7.4
Procedure, shortened: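 LC-UV gave % loss after 14 or 28 days of storage at 5 °C or 40 °C. Samples were diluted supernatants from compound incubated 1 h at room temperature at 10 mg/mL target, in 100 mM acetate pH 4.5 or 100 mM phosphate pH 7.4.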

[4] = Pharmacokinetics in male Sprague Dawley rats after subcutaneous administration; format: in vivo; settings: plasma, rat, SC, 0.05 mg/kg
Sprague Dawley rats = experiment: Effect on systolic blood pressure, telemetry in Sprague Dawley rats; format: in vivo, rat; settings: 0.1 mg/kg SC
Procedure, shortened: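 Values are % change from a 1 h pre-dose baseline in systolic pressure, tracked by telemetry for up to 48 hours after a single 0.1 mg/kg subcutaneous dose. Rats (Sprague Dawley, n=2 per peptide) carried aortic catheters and recovered at least 10 days post-surgery; duration of action marks the last time point still showing an effect.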

Structure (SMILES) | remaining at 2 h [1] [%] | Emax (% I) (CFR1R receptor) | EC50 (CFR1R receptor) [pM] | EC50 (human CRF2a receptor) [pM] | AUC(0-t) [2] [ng·h/mL] | half-life [2] [h] | Buffer stability pH 7.4 % purity loss [3] | AUC(0-t) [4] [ng·h/mL] | Cmax [4] [ng/mL] | Tmax [4] [h] | half-life [4] [h] | Buffer stability pH 4.5 % purity loss ([3]; 100 mM acetate buffer pH 4.5) | Systolic blood pressure (Mean) % change from baseline, 8 h (Sprague Dawley rats; 8 h, n=2) [%] | Systolic blood pressure (Mean) % change from baseline, 12 h (Sprague Dawley rats; 12 h, n=2) [%] | Systolic blood pressure (Mean) % change from baseline, 24 h (Sprague Dawley rats; 24 h, n=2) [%] | Duration of action (Sprague Dawley rats; last time point with an effect on BP still observed) [h]
CC[C@H](C)[C@H](NC(C)=O)C(=O)N[C@H](C(=O)N[C@@H](CC(C)C)C(=O)N[C@@H](CO)C(=O)N[C@@H](CC(C)C)C(=O)N[C@@H](CC(=O)O)C(=O)N[C@@H](C(=O)N1CCC[C@H]1C(=O)N[C@H](C(=O)N[C@@H](CCCCN)C(=O)N[C@@H](CC(C)C)C(=O)N[C@@H](CCCCNC(=O)CC[C@H](NC(=O)CC[C@H](NC(=O)CCCCCCCCCCCCCCCCCCC(=O)O)C(=O)O)C(=O)O)C(=O)N[C@@H](CCCCN)C(=O)N[C@H](C(=O)N[C@@H](CC(C)C)C(=O)N[C@@H](CC(C)C)C(=O)N[C@@H](CCC(=O)O)C(=O)N[C@@H](CCC(N)=O)C(=O)N[C@@H](CCC(=O)O)C(=O)N[C@@H](CCCCN)C(=O)N[C@@H](CCC(N)=O)C(=O)N[C@@H](CCCCN)C(=O)N[C@@H](CCC(=O)O)C(=O)N[C@@H](CCC(N)=O)C(=O)N[C@@H](CCCNC(=N)N)C(=O)N[C@@H](CCC(=O)O)C(=O)N[C@@H](CCC(N)=O)C(=O)N[C@@H](C)C(=O)N[C@@H](CCC(=O)O)C(=O)N[C@H](C(=O)N[C@@H](CC(N)=O)C(=O)NC(C)(C)C(=O)N[C@@H](CCC(N)=O)C(=O)N[C@H](C(=O)N[C@@H](CC(C)C)C(=O)N[C@@H](C)C(=O)N[C@@H](CCC(N)=O)C(=O)N[C@H](C(N)=O)C(C)C)[C@@H](C)CC)[C@@H](C)O)[C@@H](C)CC)[C@@H](C)CC)C(C)C)C(C)C [compound 241] (Ac-IVLSLD[dV]PIKLK([γGlu-γGlu-C20 diacid])KILLEQEKQKEQREQAETN[Aib]QILAQV-NH2) | 68 | 7 | > 250000 | 560 | 6210 | 15 | 2.0/Not Tested % | – | – | – | – | – | – | – | – | –
CC[C@H](C)[C@H](NC(C)=O)C(=O)N[C@H](C(=O)N[C@@H](CC(C)C)C(=O)N[C@@H](CO)C(=O)N[C@@H](CC(C)C)C(=O)N[C@@H](CC(=O)O)C(=O)N[C@@H](C(=O)N1CCC[C@H]1C(=O)N[C@H](C(=O)N[C@@H](CCCCN)C(=O)N[C@@H](CC(C)C)C(=O)N[C@@H](CCCCNC(=O)CC[C@H](NC(=O)CCCCCCCCCCCCCCCCC(=O)O)C(=O)O)C(=O)N[C@@H](CCCCN)C(=O)N[C@H](C(=O)N[C@@H](CC(C)C)C(=O)N[C@@H](CC(C)C)C(=O)N[C@@H](CCC(=O)O)C(=O)N[C@@H](CCC(N)=O)C(=O)N[C@@H](CCC(=O)O)C(=O)N[C@@H](CCCCN)C(=O)N[C@@H](CCC(N)=O)C(=O)N[C@@H](CCCCN)C(=O)NC(C)(C)C(=O)N[C@@H](CCC(N)=O)C(=O)N[C@@H](CCCNC(=N)N)C(=O)N[C@@H](CCC(=O)O)C(=O)N[C@@H](CCC(N)=O)C(=O)N[C@@H](C)C(=O)N[C@@H](CCC(=O)O)C(=O)N[C@H](C(=O)N[C@@H](CC(N)=O)C(=O)NC1(C(=O)N[C@@H](CCC(N)=O)C(=O)N[C@H](C(=O)N[C@@H](CC(C)C)C(=O)N[C@@H](C)C(=O)N[C@@H](CCC(N)=O)C(=O)N[C@H](C(N)=O)C(C)C)[C@@H](C)CC)CCNCC1)[C@@H](C)O)[C@@H](C)CC)[C@@H](C)CC)C(C)C)C(C)C [compound 188] (Ac-IVLSLD[dV]PIKLK([γGlu-C18 diacid])KILLEQEKQK[Aib]QREQAETN[Api]QILAQV-NH2) | 77 | 32 | > 250000 | 280 | – | – | 0.0/0.0 ^ % | 2270 | 138 | 6 | 10.6 | 0.0/0.0 ^ % | – | – | – | –
CC[C@H](C)[C@H](NC(C)=O)C(=O)N[C@H](C(=O)N[C@@H](CC(C)C)C(=O)N[C@@H](CO)C(=O)N[C@@H](CC(C)C)C(=O)N[C@@H](CC(=O)O)C(=O)N[C@@H](C(=O)N1CCC[C@H]1C(=O)N[C@H](C(=O)N[C@@H](CCCCN)C(=O)N[C@@H](CC(C)C)C(=O)N[C@@H](CCCCNC(=O)COCCOCCNC(=O)COCCOCCNC(=O)CC[C@H](NC(=O)CCCCCCCCCCCCCCCCCCC(=O)O)C(=O)O)C(=O)N[C@@H](CCCCN)C(=O)N[C@H](C(=O)N[C@@H](CC(C)C)C(=O)N[C@@H](CC(C)C)C(=O)N[C@@H](CCC(=O)O)C(=O)N[C@@H](CCC(N)=O)C(=O)N[C@@H](CCC(=O)O)C(=O)N[C@@H](CCCCN)C(=O)N[C@@H](CCC(N)=O)C(=O)N[C@@H](CCCCN)C(=O)N[C@@H](CCC(=O)O)C(=O)N[C@@H](CCC(N)=O)C(=O)N[C@@H](CCCNC(=N)N)C(=O)N[C@@H](CCC(=O)O)C(=O)N[C@@H](CCC(N)=O)C(=O)N[C@@H](C)C(=O)N[C@@H](CCC(=O)O)C(=O)N[C@H](C(=O)N[C@@H](CC(N)=O)C(=O)NC(C)(C)C(=O)N[C@@H](CCC(N)=O)C(=O)N[C@H](C(=O)N[C@@H](CC(C)C)C(=O)N[C@@H](C)C(=O)N[C@@H](CCC(N)=O)C(=O)N[C@H](C(N)=O)C(C)C)[C@@H](C)CC)[C@@H](C)O)[C@@H](C)CC)[C@@H](C)CC)C(C)C)C(C)C [compound 236] (Ac-IVLSLD[dV]PIKLK([AEEA-AEEA-γGlu-C20 diacid])KILLEQEKQKEQREQAETN[Aib]QILAQV-NH2) | 75 | 7 | > 250000 | 540 | 8250 | 15 | 3.8/Not Tested % | – | – | – | – | – | – | – | – | –
CC[C@H](C)[C@H](NC(C)=O)C(=O)N[C@H](C(=O)N[C@@H](CC(C)C)C(=O)N[C@@H](CO)C(=O)N[C@@H](CC(C)C)C(=O)N[C@@H](CC(=O)O)C(=O)N[C@@H](C(=O)N1CCC[C@H]1C(=O)N[C@H](C(=O)N[C@@H](CCCCN)C(=O)N[C@@H](CC(C)C)C(=O)N[C@@H](CCCCNC(=O)CC[C@H](NC(=O)CCCCCCCCCCCCC(=O)O)C(=O)O)C(=O)N[C@@H](CCCCN)C(=O)N[C@H](C(=O)N[C@@H](CC(C)C)C(=O)N[C@@H](CC(C)C)C(=O)N[C@@H](CCC(=O)O)C(=O)N[C@@H](CCC(N)=O)C(=O)N[C@@H](CCC(=O)O)C(=O)N[C@@H](CCCCN)C(=O)N[C@@H](CCC(N)=O)C(=O)N[C@@H](CCCCN)C(=O)N[C@@H](CCCCN)C(=O)N[C@@H](CCC(N)=O)C(=O)N[C@@H](CCCNC(=N)N)C(=O)N[C@@H](CCC(=O)O)C(=O)N[C@@H](CCC(N)=O)C(=O)N[C@@H](C)C(=O)N[C@@H](CCC(=O)O)C(=O)N[C@H](C(=O)N[C@@H](CC(N)=O)C(=O)NC(C)(C)C(=O)N[C@@H](CCC(N)=O)C(=O)N[C@H](C(=O)N[C@@H](CC(C)C)C(=O)N[C@@H](C)C(=O)N[C@@H](CCC(N)=O)C(=O)N[C@H](C(N)=O)C(C)C)[C@@H](C)CC)[C@@H](C)O)[C@@H](C)CC)[C@@H](C)CC)C(C)C)C(C)C [compound 82] (Ac-IVLSLD[dV]PIKLK([γGlu-C14 diacid])KILLEQEKQKKQREQAETN[Aib]QILAQV-NH2) | 82 | – | – | – | – | – | 0.0/Not Tested % | 221 | 64 | 0.75 | 1.4 | – | −33 | −4 | 11 | 14
